Values after ≈ are worked out from the molar mass of the structure shown.
Legend:
P. aeruginosa PAO397 = test: Broth microdilution MIC, P. aeruginosa PAO397; format: cell-based; details: Pseudomonas aeruginosa, PAO397, 18 h, read-out: PAO397 KO MIC
[1] = biological target: recombinant LpxA enzyme (E. coli) (Escherichia coli, UniProt P0A722); test: LpxA in vitro substrate acylation assay with RapidFire MS analysis (E. coli); format: biochemical
Experimental: Exemplary compounds from the above Examples were tested for ability to inhibit LpxA activity using an in vitro substrate acylation assay with RapidFire™ MS analysis. Assay procedures and results are described below.
Reactions were carried out in a final volume of 30 μL with 25 mM HEPES (pH 7.3), 150 mM NaCl, 2 mM DTT, 0.01% BSA, 5 μM UDP-GlcNac, recombinant LpxA enzyme (0.5 nM P. aeruginosa or 1.0 nM E. coli, both produced at Evotec), 0.5 μM acyl-transfer reagent (decanoyl P. aeruginosa acyl-carrier protein [PaACP-C10] or myristoyl E. coli acyl-carrier protein [EcACP-C1-4], both produced at Evotec), and 1% DMSO containing test compound. After 30 min incubation at room temperature, reactions were stopped by addition of 30 μL of 10% TCA in water.
(§1) Samples were centrifuged (4350 rpm, 4° C., 5 min), and then subjected to RapidFire™ MS analysis on an Agilent RapidFire 300 coupled to an Agilent 6460 triple-quadrupole mass spectrometer. Analytes were retained on a C4 (type A) cartridge using the following solvents and flow rates: • Pump 1—H2O with 5 mM NH4OAc at 2.0 mL/min, • Pump 2—MeOH/H2O (90/10) at 1.5 mL/min, • Pump 3—MeOH/H2O (90/10) at 0.5 mL/min, and • Pump 4—ACN (organic)/H2O (aqueous). Substrate and product of the reaction were detected in negative mode ESI-MS/MS by MRM (multiple reaction monitoring) of transitions 606.0/385.0 (UDP-GlcNAc substrate) and 776.2/385.0 (UDP-3-O—(R-3-hydroxydecanoyl)-GlcNAc product, for P. aeruginosa LpxA assay) or 832.2/385.0 (UDP-3-O—(R-3-hydroxymyristoyl)-GlcNAc product, for E. coli LpxA assay).
For IC50 determinations, peak areas of the substrate and product were compared to compute the proportion of product formed by the LpxA enzyme at each compound concentration.

[2] = test system: Wild-type P. aeruginosa PAO1; test: Broth microdilution MIC, wild-type P. aeruginosa PAO1; format: cell-based; details: Pseudomonas aeruginosa; wild-type P. aeruginosa PAO1, 37° C., 18 h; read-out: PAO1 WT MIC
[3] = biological target: T1, recombinant LpxD enzyme (P. aeruginosa) (Pseudomonas aeruginosa, UniProt Q9HXY6); test: LpxD in vitro substrate acylation assay with RapidFire MS analysis (P. aeruginosa); format: biochemical; details: P. aeruginosa enzyme 10 nM, EcACP-C10, 120 min
T1 sequence (Q9HXY6 1-353): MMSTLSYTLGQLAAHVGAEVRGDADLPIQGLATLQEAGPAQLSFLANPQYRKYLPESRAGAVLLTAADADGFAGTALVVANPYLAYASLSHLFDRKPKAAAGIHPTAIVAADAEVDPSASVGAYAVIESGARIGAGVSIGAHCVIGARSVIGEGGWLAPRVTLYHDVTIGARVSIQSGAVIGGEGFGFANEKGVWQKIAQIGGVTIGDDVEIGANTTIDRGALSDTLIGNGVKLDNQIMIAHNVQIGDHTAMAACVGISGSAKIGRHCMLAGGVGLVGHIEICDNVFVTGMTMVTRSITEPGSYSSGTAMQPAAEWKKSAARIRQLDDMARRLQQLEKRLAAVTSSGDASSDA
Experimental: Exemplary compounds from the above Examples were tested for ability to inhibit LpxD activity using an in vitro substrate acylation assay with RapidFire™ MS analysis. Assay procedures and results are described below.
Reactions were carried out in a final volume of 30 μL with 25 mM HEPES (pH 7.3), 150 mM NaCl, 2 mM DTT, 0.01% BSA, 5 μM UDP-3-O[R-3-Hydroxymyristoyl]-glucosamine (produced at Charles River according to literature procedures, and partially purified at Evotec), 10 nM recombinant LpxD enzyme (P. aeruginosa or E. coli, produced at Evotec), 1 μM decanoyl E. coli acyl-carrier protein (EcACP-C10, produced at Evotec), and 1% DMSO containing test compound. After 120 min incubation at room temperature, reactions were stopped by addition of 30 μL of 10% TCA in water.
as §1, with “790.3/385.0 (UDP-3-O[R-3-Hydroxymyristoyl]-glucosamine” for “606.0/385.0 (UDP-GlcNAc”, “960.4/385.0 (UDP-3-O—[R-3-Hydroxymyristoyl]-N—[R-3-hydroxydecanoyl]-glucosamine product).” for “776.2/385.0 (UDP-3-O—(R-3-hydroxydecanoyl)-GlcNAc product, for P. aeruginosa LpxA assay) or 832.2/385.0 (UDP-3-O—(R-3-hydroxymyristoyl)-GlcNAc product, for E. coli LpxA assay).”
For IC50 determinations, peak areas of the substrate and product were compared to compute the proportion of product formed by the LpxD enzyme at each compound concentration. The fractional activity was converted to percentage inhibition and plotted against compound concentration in Evotec's proprietary platform Aplus and fit using a four-parameter logistic using non-linear regression to yield the IC50 value.

[4] = biological target: T2, recombinant LpxA enzyme (P. aeruginosa) (Pseudomonas aeruginosa, UniProt Q9X6P4); test: LpxA in vitro substrate acylation assay with RapidFire MS analysis (P. aeruginosa); format: biochemical; details: P. aeruginosa enzyme 0.5 nM, PaACP-C10, 30 min
T2 sequence (Q9X6P4 1-258): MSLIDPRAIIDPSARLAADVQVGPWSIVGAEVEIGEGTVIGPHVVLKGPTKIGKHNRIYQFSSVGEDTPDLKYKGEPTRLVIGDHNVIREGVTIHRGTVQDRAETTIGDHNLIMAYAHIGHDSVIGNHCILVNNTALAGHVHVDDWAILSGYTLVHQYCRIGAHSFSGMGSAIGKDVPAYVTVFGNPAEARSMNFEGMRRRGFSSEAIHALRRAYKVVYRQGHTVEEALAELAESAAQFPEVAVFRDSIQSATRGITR

[5] = test system: E. coli JW0452-3 (BW25113 JacrA::kan); test: Broth microdilution MIC, E. coli JW0452-3; format: cell-based; details: Escherichia coli, BW25113, 18 h, read-out: E. coli KO MIC
Experimental: Exemplary compounds from the above Examples were tested to determine their minimum inhibitory concentration (MIC) for exemplary strains of Escherichia and Pseudomonas bacteria using broth microdilution methods. Assay procedures and results are described below.
Broth microdilution assays were conducted according to Clinical and Laboratory Standards Institute guidelines (CLSI, M07-A^11: Clinical and Laboratory Standards Institute. Methods for Dilution Antimicrobial Susceptibility Tests for Bacteria that Grow Aerobically; Approved Standard-11th Edition. Wayne, PA: CLSI, 2018). Briefly, bacterial suspensions were adjusted to a density equivalent to a 0.5 McFarland standard and diluted in sterile, cation-adjusted Mueller-Hinton broth (Beckton Dickinson) to yield a final inoculum between 2×10^5 and 8×10^5 colony-forming units (CFU)/mL. An inoculum volume of 98 μL was added to wells containing 2 μL of 2-fold serial dilutions of drug (prepared in DMSO). All inoculated microdilution trays were incubated in ambient air at 37° C. for 18 h. […] Performance of the assay was monitored by the use of laboratory quality-control strains (S. aureus ATCC 29213 and P. aeruginosa ATCC 27853) and levofloxacin, a compound with a defined MIC spectrum, in accordance with CLSI guidelines (CLSI, M100Ed29: Clinical and Laboratory Standards Institute. Performance Standards for Antimicrobial Susceptibility Testing, 29th Edition. Wayne, PA: CLSI, 2018).
Multiple enterobacteriaceae strains were tested, including both wild-type strains and multi-drug resistance pump deficient mutants. Specific strains tested included the following: • Wild-type P. aeruginosa PAO1, • P. aeruginosa PAO1 ΔmexABoprM—Disabled multi-drug efflux system Δ(MexAB-OprM), • P. aeruginosa PAO397—PAO1Δ(mexAB-oprM) Δ(mexCD-oprJ) Δ(mexEF-oprN) Δ(mexJK) Δ(mexXY) ΔopmH, • P. aeruginosa LESB58—Clinical isolate; colistin-resistant, isolated in the United Kingdom in 1988 from a patient with cystic fibrosis • E. coli JW0452-3 (BW25113 JacrA::kan)—Disabled multi-drug efflux system (AcrAB-TolC). […]

[6] = test system: P. aeruginosa PAO1 ΔmexABoprM; test: Broth microdilution MIC, P. aeruginosa PAO1 ΔmexABoprM; format: cell-based; details: Pseudomonas aeruginosa, PAO1, 18 h, read-out: PAO1 KO MIC

recombinant LpxA enzyme (E. coli), sequence (P0A722 whole entry): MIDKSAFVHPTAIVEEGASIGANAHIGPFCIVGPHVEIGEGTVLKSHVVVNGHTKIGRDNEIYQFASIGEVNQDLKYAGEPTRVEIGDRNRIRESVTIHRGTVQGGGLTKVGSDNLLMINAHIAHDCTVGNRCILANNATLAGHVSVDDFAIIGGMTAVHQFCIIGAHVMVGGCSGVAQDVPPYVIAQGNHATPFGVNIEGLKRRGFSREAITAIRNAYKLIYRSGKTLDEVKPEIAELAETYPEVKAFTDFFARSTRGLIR

SMILES: N#Cc1ccc(CN(CC(=O)N2CCOCC2)C(=O)CSc2ccccc2Cl)cc1 [Compound No. 2]
- MIC (P. aeruginosa PAO397): 16 to 64 µg/mL (≈ 36 to 144 µM)
- IC50 [1]: > 20000 nM
- MIC [2]: > 64 µg/mL
- IC50 [3]: > 20000 nM
- IC50 [4]: > 1000 nM

SMILES: CN1CC(NC(=O)CN(Cc2ccc(C#N)cc2)C(=O)CSc2ccccc2Cl)C1 [Compound No. 6]
- MIC (P. aeruginosa PAO397): 1 to 16 µg/mL (≈ 2.26 to 36.1 µM)
- MIC [2]: > 64 µg/mL
- IC50 [3]: > 20000 nM
- IC50 [4]: > 1000 nM

SMILES: N#Cc1ccc(CN(Cc2nnc(N)o2)C(=O)CSc2cc(-c3c[nH]cn3)ccc2Cl)c(F)c1 [Compound No. 62, N-[(5-Amino-1,3,4-oxadiazol-2-yl)methyl]-2-[2-chloro-5-(1H-imidazol-4-yl)phenyl]sulfanyl-N-[(4-cyano-2-fluoro-phenyl)methyl]acetamide]
- MIC [5]: 16 to 64 µg/mL (≈ 32.1 to 129 µM)
- MIC (P. aeruginosa PAO397): 1 to 16 µg/mL (≈ 2.01 to 32.1 µM)
- IC50 [1]: 5000 to 20000 nM
- MIC [2]: > 64 µg/mL
- IC50 [4]: 100 to 1000 nM

SMILES: N#Cc1ccc(CN(CC(=O)NC2CNC2)C(=O)CSc2ccccc2Cl)cc1 [compound 5]
- MIC [5]: 16 to 64 µg/mL (≈ 37.3 to 149 µM)
- MIC (P. aeruginosa PAO397): 16 to 64 µg/mL (≈ 37.3 to 149 µM)
- MIC [2]: > 64 µg/mL
- IC50 [3]: > 20000 nM
- IC50 [4]: 100 to 1000 nM

SMILES: CS(=O)(=O)Nc1ccc(CN(Cc2nnc(N)o2)C(=O)CSc2ccccc2Cl)cc1 [compound 46]
- MIC [6]: > 64 µg/mL
- MIC [5]: 16 to 64 µg/mL (≈ 33.2 to 133 µM)
- MIC (P. aeruginosa PAO397): 1 to 16 µg/mL (≈ 2.07 to 33.2 µM)
- IC50 [1]: > 20000 nM
- MIC [2]: > 64 µg/mL
- IC50 [4]: 20 to 100 nM

— patent US20240166612A1, “ARYLTHIOETHER ACETAMIDE AND RELATED COMPOUNDS AND THEIR USE IN TREATING MEDICAL CONDITIONS” (X-Biotix Therapeutics, Inc., priority 2021, published 2024)
